Test results from US7049332B2, “HIV inhibiting N-aminoimidazole derivatives” (K. U. Leuven Research & Development, priority 2001, dated 2006).
≈ marks a conversion by molar mass, not a printed value.

Assays:
HIV-1 (NL4.3 WT) = test: Inhibition of HIV-induced cytopathogenic effect in MT-4 cells (MTT), HIV-1; format: cell-based; details: for HIV-1 (NL4.3 WT) IC50 / IC50: 50% protection against HIV-induced cytopathogenic effect, MT-4 cells, MTT; for HIV-1 (NL4.3 WT) SI: selectivity index = ratio of CC50 to IC50, HIV-1; for IC50: Human immunodeficiency virus 1, MT4
Method: (§1) A rapid and automated assay procedure was used for the in vitro evaluation of anti-HIV agents. An HTLV-1 transformed T4-cell line MT-4, which was previously shown to be highly susceptible to and permissive for HIV infection, served as the target cell line. Inhibition of the HIV-induced cytopathogenic effect was used as the end point. The viabitlity of both HIV-and mock-infected cells was assessed spectrophotometrically via in situ reduction of 3-(4,5-dimethylthiazol-2-yl)-2,5-diphenyltetrazolium bromide (MTT). The 50% cytotoxic concentration (CC50 in μg/ml) was defined as the concentration of compound that reduced the absorbance of the mock-infected control sample by 50%. The percent protection achieved by the compound in HIV-infected cells was calculated by the following formula:
(§2) [formula] whereby (ODT)HIV is the optical density measured with a given concentration of the test compound in HIV-infected cells; (ODC)HIV is the optical density measured for the control untreated HIV-infected cells; (ODC)MOCK is the optical density measured for the control untreated mock-infected cells; all optical density values were determined at 540 nm. The dose achieving 50% protection according to the above formula was defmed as the 50% inhibitory concentration (IC50 in μg/ml). The ratio of CC50 to IC50 was defined as the selectivity index (SI).
(§3) Cells: MT-4 cells (Miyoshi et al., 1982) were grown and maintained in RPMI 1640 medium supplemented with 10% heat-inactivated fetal calf serum, 2 mM 1-glutamine, 0.1% sodium bicarbonate, and 20 œg of gentamicin per ml.
(§4) Viruses: The HIV-1(NL4.3) strain (Adachi et al., 1986) is a molecular clone obtained from the National Institutes of Health (Bethesda, Md.). The HIV-2(ROD) (Barr,-Sinoussi et al., 1983) stock was obtained from culture supernatant of HIV-2 infected cell lines.

MT-4 cells = test: Cytotoxicity in mock-infected MT-4 cells (MTT); format: cell-based
Method: as §1, with “formula: Examples of inhibition of cell proliferation by particular compounds of formula (I) can be found by looking at the respective CC50 values in the MT-4 cell line. Cells: MT-4 cells (Miyoshi et al., 1982) were grown and maintained in RPMI 1640 medium supplemented with 10% heat-inactivated fetal calf serum, 2 mM […], 0.1% sodium bicarbonate, and 20 œg of gentamicin per ml.” for “formula:”

HIV-2 (ROD) = test: Inhibition of HIV-induced cytopathogenic effect in MT-4 cells (MTT), HIV-2; format: cell-based; details: for HIV-2 (ROD) IC50 / IC50: 50% protection against HIV-induced cytopathogenic effect, MT-4 cells, MTT; for HIV-2 (ROD) SI: selectivity index = ratio of CC50 to IC50, HIV-2; for IC50: Human immunodeficiency virus 2, MT4
Method: as §1, §2, §3, §4

[1] = Cytotoxicity in mock-infected MT-4 cells (MTT); format: cell-based; details: human; mock-infected MT-4 cells, absorbance reduced by 50%, MTT
Method: as §1, with “formula: Examples of inhibition of cell proliferation by particular compounds of formula (I) can be found by looking at the respective CC50 values in the MT-4 cell line. Cells: MT-4 cells (Miyoshi et al., 1982) were grown and maintained in RPMI 1640 medium supplemented with 10% heat-inactivated fetal calf serum, 2 mM […], 0.1% sodium bicarbonate, and 20 œg of gentamicin per ml.” for “formula:”

Row | Structure (SMILES) | HIV-1 (NL4.3 WT) IC50 (HIV-1 (NL4.3 WT)) | HIV-1 (NL4.3 WT) SI (HIV-1 (NL4.3 WT)) | cytotoxicity CC50 (MT-4 cells) | HIV-2 (ROD) IC50 (HIV-2 (ROD)) | HIV-2 (ROD) SI (HIV-2 (ROD)) | IC50 (HIV-1 (NL4.3 WT)) | CC50 [1] | melting point | IC50 (HIV-2 (ROD))
1 | Cc1ncn(Nc2cccc(Cl)c2)c1-c1cccc(C#N)c1 [Compound 13.15, 1-(3-Chlorphenylamino)-5-(3-cyanophenyl)-4-methyl-1H-imidazole] | 3.4 µg/mL | 3.2 | 10.9 µg/mL | >10.9 µg/mL | <1 |  |  |  | 
2 | Cc1[nH]c(=S)n(Nc2cccc(Cl)c2)c1-c1cccc(C#N)c1 [Compound 9.32, 1-(3-Chlorphenylamino)-5-(3-cyanophenyl)-2,3-dihydro-4-methyl-1H-imidazole-2-thione] | 13.8 µg/mL | 2.3 | 32.1 µg/mL | >32.1 µg/mL | <1 |  |  |  | 
3 | COc1cccc(Nn2c(-c3ccccc3)c(C)[nH]c2=S)c1 [Compound 9.31] | 3.1 µg/mL | 4.0 | 12.3 µg/mL | >12.3 µg/mL | <1 |  |  |  | 
4 | Cc1[nH]c(=S)n(Nc2cccc(F)c2)c1-c1ccccc1 [Compound 9.18, 2,3-Dihydro-1-(3-fluorophenylamino)-4-methyl-5-phenyl-1H-imidazole-2-thione] |  | 8.6 |  |  | <1 | 5.5 µg/mL (≈ 18.4 µM) | 47.3 µg/mL (≈ 158 µM) | 226 °C | > 47.3 µg/mL
5 | CCc1[nH]c(=S)n(Nc2cccc(C)c2)c1-c1ccccc1 [Compound 9.25, 2,3-Dihydro-4-ethyl-1-(3-methylphenylamino)-5-phenyl-1H-imidazole-2-thione] |  | 5.0 |  |  | <1 | 3.9 µg/mL (≈ 12.6 µM) | 19.8 µg/mL (≈ 64 µM) | 202 to 204 °C | > 19.8 µg/mL
6 | Cc1[nH]c(=S)n(Nc2cccc(Cl)c2)c1-c1cccc(Br)c1 [Compound 9.05, 5-(3-Bromophenyl)-1-(3-chlorophenylamino)-2,3-dihydro-4-methyl-1H-imidazole-2-thione] |  | 10.4 |  |  | 5.5 | 2.2 µg/mL (≈ 5.57 µM) | 22.9 µg/mL (≈ 58 µM) | 196 °C | 4.1 µg/mL (≈ 10.4 µM)
7 | Cc1cc(C)cc(Nn2c(-c3ccccc3)c(C)[nH]c2=S)c1 [Compound 9.30, 2,3-Dihydro-1-(3,5-dimethylphenylamino)-4-methyl-5-phenyl-1H-imidazole-2-thione] |  | 241.9 |  |  | <1 | 0.3 µg/mL (≈ 0.969 µM) | 65.3 µg/mL (≈ 211 µM) | 240 to 242 °C | > 65.3 µg/mL
8 | Cc1ncn(Nc2cccc(Cl)c2)c1-c1cccc(Cl)c1 [Compound 13.03, 5-(3-Chlorophenyl)-1-(3-chlorophenylamino)-4-methyl-1H-imidazole] |  | 73.5 |  |  | 63.8 | 0.2 µg/mL (≈ 0.629 µM) | 14.7 µg/mL (≈ 46.2 µM) | 168 °C | 0.23 µg/mL (≈ 0.723 µM)
9 | Cc1[nH]c(=S)n(Nc2cccc(Br)c2)c1-c1ccccc1 [Compound 9.14, 1-(3-Bromophenylamino)-2,3-dihydro-4-methyl-5-phenyl-1H-imidazole-2-thione] |  | 10.5 |  |  | <1 | 1.6 µg/mL (≈ 4.44 µM) | 17.1 µg/mL (≈ 47.5 µM) | 190 °C | > 17.1 µg/mL
10 | Cc1[nH]c(=S)n(Nc2cccc(Cl)c2)c1-c1ccccc1 [Compound 9.01, 1-(3-Chlorophenylamino)-2,3-dihydro-4-methyl-5-phenyl-1H-imidazole-2-thione] |  | 7.6 |  |  | 8.4 | 2.8 µg/mL (≈ 8.87 µM) | 21.5 µg/mL (≈ 68.1 µM) | 215 to 217 °C | 2.6 µg/mL (≈ 8.23 µM)
11 | Cc1ccc(Nn2c(-c3ccccc3)c(C)[nH]c2=S)cc1Cl [Compound 9.15, 1-(3-Chloro-4-methylphenylamino)-2,3-dihydro-4-methyl-5-phenyl-1H-imidazole-2-thione] |  | 4.7 |  |  | <1 | 3.6 µg/mL (≈ 10.9 µM) | 16.9 µg/mL (≈ 51.2 µM) | 190 °C | > 16.9 µg/mL
12 | Cc1[nH]c(=S)n(Nc2ccccc2Cl)c1-c1ccccc1 [Compound 9.02, 1-(2-Chlorophenylamino)-2,3-dihydro-4-methyl-5-phenyl-1H-imidazole-2-thione] |  | 9.0 |  |  | <1 | 7.4 µg/mL (≈ 23.4 µM) | 65 µg/mL (≈ 206 µM) | 220 to 221 °C | > 65 µg/mL
13 | Cc1ncn(Nc2cccc(Cl)c2)c1-c1ccccc1 [Compound 13.01, 1-(3-Chlorophenylamino)-4-methyl-5-phenyl-1H-imidazole] |  | 6.0 |  |  | 6.9 | 0.5 µg/mL (≈ 1.76 µM) | 3.25 µg/mL (≈ 11.5 µM) | 218 °C | 0.5 µg/mL (≈ 1.76 µM)
14 | Cc1[nH]c(=S)n(Nc2cccc([N+](=O)[O-])c2)c1-c1ccccc1 [Compound 9.17, 2,3-Dihydro-4-methyl-1-(3-nitrophenylamino)-5-phenyl-1H-imidazole-2-thione] |  | 4.2 |  |  | <1 | 3.7 µg/mL (≈ 11.3 µM) | 15.4 µg/mL (≈ 47.2 µM) | 214 °C | > 15.4 µg/mL
15 | Cc1ccc(Nn2c(-c3ccccc3)c(C)[nH]c2=S)cc1C [Compound 9.13, 2,3-Dihydro-1-(3,4-dimethylphenylamino)-4-methyl-5-phenyl-1H-imidazole-2-thione] |  | 16.3 |  |  | <1 | 1.1 µg/mL (≈ 3.55 µM) | 17.9 µg/mL (≈ 57.8 µM) | 228 °C | > 17.9 µg/mL
